Experimental data taken from patent US20150157575A1, “Pharmaceutical Formulations Comprising Vilazodone” (Forest Laboratories Holdings Ltd., priority 2013, published 2015).
One block for each compound: values may come before it.

Experiments:
clinical = assay: clinical; design: species or system human; details: in vivo
Method: An open-label, multiple-dose, single-sequence study to evaluate the effect of steady-state carbamazepine XR, 400 mg once daily, a CYP3A4 substrate and inducer, on the pharmacokinetics of steady-state vilazodone 40 mg tablets once daily, with hardness of more than 10 kp and less than 14 kp, preferably about 12 kp as shown in Table 3 (No Tablet Breakage). Vilazodone was co-administered with carbamazepine XR (extended release formulation). Carbamazepine is an antiepileptic drug approved for the treatment of psychomotor and grand mal seizures is metabolized by CYP3A4, and is a CYP3A4 inducer.
All subjects were healthy, nonsmoking male or female volunteers who were 18-45 (Study 2) years of age. Inclusion and exclusion criteria were typical of the criteria used in pharmacokinetic studies in healthy volunteers as known in the art. Inclusion criteria used included agreement to use an effective measure of contraception, body mass index (BMI)>18 and ≦30 kg/m^2 (BMI=18 allowed), normal or clinically non-significant results on physical examination, medical history, serum chemistry, hematology, and urinalysis; negative hepatitis B antigen and C antibody tests, and negative HIV test at screening. Exclusion criteria included clinically significant electrocardiogram results or QT prolongation, clinically significant disease state, history of alcohol abuse, ingestion of food, drink, or drug that may interfere with CYP enzyme activity (e.g., cruciferous vegetables, caffeine, alcohol), known sensitivity to study drug or other drugs from the same class, and use of prohibited concomitant prescription or over-the counter medications.
All volunteers received 4 treatments (A, B, C, and D) in the same, fixed sequence: Treatment A consisted of vilazodone alone on Days 1-9 and was followed by a 14-day washout, Treatment B was carbamazepine XR alone for 19 days (Days 24-42), Treatment C was vilazodone plus carbamazepine XR for 9 days (Days 43-51), and Treatment D was carbamazepine alone for 3 days (Days 52-54). Once-daily doses of study drug were administered in the morning after breakfast; twice-daily doses were administered in the morning after breakfast and 12 hours later in the evening after dinner Study drug was administered within 30 minutes after the end of the corresponding meal.
Blood samples to determine plasma concentrations of vilazodone, M17 (the metabolite of vilazodone), carbamazepine, and carbamazepine-10,11-epoxide (one of the pharmacologically active metabolites of carbamazepine) were collected into tubes pretreated with K2EDTA. For vilazodone and M17 analyses, blood samples (approximately 6 mL) were collected at pre-dose on Days 1, 7, 8, 49, and 50. […] For the analyses of carbamazepine and carbamazepine-10,11-epoxide, blood samples were collected at pre-dose on Days 24, 40, 41, 49 and 50.
Blood samples were centrifuged at no less than 2500 g for 10 minutes at 4° C. within 30 minutes of the sample draw. Plasma was harvested and transferred to polypropylene tubes and flash frozen in a dry ice bath with isopropyl alcohol or methanol. Samples for vilazodone analyses were stored at approximately −70° C. and analyzed. Samples for carbamazepine analyses were stored at −20° C. and analyzed.
Plasma samples were analyzed for vilazodone, M17, carbamazepine and/or carbamazepine-10,11-epoxide concentrations using liquid chromatography coupled with tandem mass spectrometry (LC/MS/MS). For vilazodone and M17, analytes of interest were detected by electrospray ionization mass spectrometry in the negative ion multiple reaction monitoring mode. The assay was linear in the concentration range of 0.5 to 250 ng/mL for vilazodone and 0.25 to 125 ng/mL for M17.
Based on 50 ìL of human plasma with K2EDTA as the anticoagulant, the lower limit of quantification (LLOQ) was 0.5 ng/mL for vilazodone and 0.25 ng/mL for M17. […]

[1] = Study 2: single-dose pharmacokinetics in severe hepatic impairment and matched healthy controls; details: for AUC(0-inf) / Cmax / Tmax / half-life: both, human, plasma, po, 20 mg, vilazodone 20 mg single oral dose; for AUC(0-inf): AUC0-∞
Method: The pharmacokinetics, tolerability, and safety of vilazodone were investigated in two separate trials involving participants with hepatic impairment, compared with healthy controls. An Open-label, parallel-group, single-dose pharmacokinetic studies, a single, oral dose of vilazodone (20 mg with increased hardness) was administered to participants with mild, moderate, or severe hepatic impairment or individually matched controls. Outcomes included pharmacokinetic parameters and safety (vital signs, clinical laboratory evaluations, ECG, and adverse events [AEs]). Plasma samples were analyzed using validated LC/MS/MS methods.
Data from two, open-label, parallel-group, single-dose pharmacokinetic studies investigated single-dose vilazodone (20 mg with increased hardness) in participants with hepatic impairment and normal hepatic function. The first study (Study 1) included participants with mild or moderate hepatic impairment and healthy controls. The second study (Study 2) included participants with severe hepatic impairment or healthy participants. These studies were both designed in accordance with the FDA guidance for evaluation of pharmacokinetics in the presence of hepatic impairment. The differences between the study protocols were minimal, so both methodologies are described together, with any differences noted below.
Participants were men and women, 18 to 70 years of age, with a body mass index (BMI) of 18-42 kg/m^2. Women were not pregnant or breastfeeding and agreed to utilize a medically accepted form of contraception during the study (as did men in Study 2). In Study 2, participants were also required to be non-smokers or light smokers (fewer than 10 cigarettes per day; there was no stipulation in Study 1) and to have a sitting pulse rate of 50-100 bpm at screening and prior to dosing on Day 1. […] Each healthy control was matched with a hepatically impaired participant. Control participants in the Study 1 were matched with a hepatically impaired individual according to age (±10 years), sex, and BMI (±15%). Control participants in Study 2 were matched with a hepatically impaired individual according to age (±5 years), sex, and weight (±10%).
Participants with hepatic dysfunction were classified according to the Child-Pugh hepatic dysfunction staging system as having mild (5-6 points) or moderate (7-9 points) hepatic impairment (Study 1), or severe impairment (10-15 points; Study 2). Participants with severe impairment also had chronic liver disease and/or compensated cirrhosis, as evidenced by liver biopsy, computerized tomography or ultrasonic evidence of hepatic fibrosis, clinical evidence of chronic liver disease, or a colloid shift on a liver-spleen scan. Exclusion criteria included the following: a clinical diagnosis or history of depression; treatment with antidepressants, anxiolytics, psychoactive medications (including herbal supplements), other serotonergic drugs, or drugs that inhibit CYP3A4 (eg, ketoconazole, diltiazem, macrolide antibiotics); a hypersensitivity to vilazodone or other SSRIs or 5-HT agonists; history or evidence of alcohol or substance abuse, cancer, human immunodeficiency virus, hepatitis B (Study 1 and healthy controls, both studies) hepatitis C (healthy controls, both studies), or other clinically significant illnesses or medical conditions. Participants with severe hepatic impairment were excluded if they had bleeding diathesis, advanced ascites requiring large-volume paracentesis within 1 week of dosing, esophageal bleeding within the previous 8 weeks, history of portosystemic shunt or hepatic transplant, or evidence of hepatic encephalopathy, hepatorenal syndrome, or other evidence of rapid hepatic deterioration.
Participants were not allowed to have previously taken vilazodone or participated in any clinical investigation requiring repeated blood draws within 60 days of dosing, or donated blood or plasma within 60 or 30 days, respectively.

[2] = Control matched to Severe Impairment n = 8
[3] = Severe Impairment n = 4 (who did not vomit)

- concentration at 42 day (clinical; both sexes, human, Cavg, ss, Mean (SD)): 5500 ng/mL
- Tmax (clinical; both sexes, human, tmax, Median (min-max)): 10 h
SMILES: NC(=O)N1c2ccccc2C=Cc2ccccc21 [Carbamazepine, carbamazepine]

- tmax, Median (min-max) (clinical; human): 12.0 h
- Cavg, ss, Mean (SD) (clinical): 0.6 (0.2) μg/mL
SMILES: NC(=O)N1c2ccccc2C2OC2c2ccccc21 (centres unmarked) [carbamazepine-10,11-epoxide]

- AUC(0-inf) [1, 2]: 51.4 ± 21.4 ng·h/mL
- AUC(0-inf) [1, 3]: 29.9 ± 8.15 ng·h/mL
- Cmax [1, 2]: 1.95 ± 0.56 ng/mL
- Cmax [1, 3]: 1.64 ± 0.56 ng/mL
- Tmax ([1]; Tmax (mean), Control matched to Severe Impairment n = 8): 6 ± 4.14 h
- Tmax ([1]; Tmax (mean), Severe Impairment n = 4 (who did not vomit)): 4.25 ± 1.26 h
- Tmax ([1]; Tmax, Median, Control matched to Severe Impairment n = 8): 5 h
- Tmax ([1]; Tmax, Median, Severe Impairment n = 4 (who did not vomit)): 4 h
- half-life ([1]; t1/2, Control matched to Severe Impairment n = 8): 17.4 ± 4.25 h
- half-life ([1]; t1/2, Severe Impairment n = 4 (who did not vomit)): 17.8 ± 9.57 h
- ratio of M17 to vilazodone (AUC0-∞) ([1]; normal controls): 0.07
- ratio of M17 to vilazodone (AUC0-∞) ([1]; severe hepatic impairment): 0.05
- mean AUC0-∞ lower than in normal controls ([1]; severe impairment (who did not vomit) vs normal controls, vilazodone 20 mg single dose): approximately 42%
SMILES: N#Cc1ccc2[nH]cc(CCCC(=O)O)c2c1 [M17]
